Experimental data reported in ChEMBL document CHEMBL5608240, “Structure-Activity Relationship of Inositol Thiophosphate Analogs as Allosteric Activators of Clostridioides difficile Toxin B” (J Med Chem, 2024).
The source made the active and inactive calls. The rule behind the calls is not given here.

Assays:
[1] = biological target: T1, Toxin B (Clostridioides difficile, UniProt P18177); assay: Allosteric activation of Clostridioides difficile Toxin B assessed as induction of autoproteolysis measured after 3 hrs in presence of CaCl2, MgCl2, ZnCl2 by Western blot based extent cleavage assay
T1 sequence (P18177 whole entry): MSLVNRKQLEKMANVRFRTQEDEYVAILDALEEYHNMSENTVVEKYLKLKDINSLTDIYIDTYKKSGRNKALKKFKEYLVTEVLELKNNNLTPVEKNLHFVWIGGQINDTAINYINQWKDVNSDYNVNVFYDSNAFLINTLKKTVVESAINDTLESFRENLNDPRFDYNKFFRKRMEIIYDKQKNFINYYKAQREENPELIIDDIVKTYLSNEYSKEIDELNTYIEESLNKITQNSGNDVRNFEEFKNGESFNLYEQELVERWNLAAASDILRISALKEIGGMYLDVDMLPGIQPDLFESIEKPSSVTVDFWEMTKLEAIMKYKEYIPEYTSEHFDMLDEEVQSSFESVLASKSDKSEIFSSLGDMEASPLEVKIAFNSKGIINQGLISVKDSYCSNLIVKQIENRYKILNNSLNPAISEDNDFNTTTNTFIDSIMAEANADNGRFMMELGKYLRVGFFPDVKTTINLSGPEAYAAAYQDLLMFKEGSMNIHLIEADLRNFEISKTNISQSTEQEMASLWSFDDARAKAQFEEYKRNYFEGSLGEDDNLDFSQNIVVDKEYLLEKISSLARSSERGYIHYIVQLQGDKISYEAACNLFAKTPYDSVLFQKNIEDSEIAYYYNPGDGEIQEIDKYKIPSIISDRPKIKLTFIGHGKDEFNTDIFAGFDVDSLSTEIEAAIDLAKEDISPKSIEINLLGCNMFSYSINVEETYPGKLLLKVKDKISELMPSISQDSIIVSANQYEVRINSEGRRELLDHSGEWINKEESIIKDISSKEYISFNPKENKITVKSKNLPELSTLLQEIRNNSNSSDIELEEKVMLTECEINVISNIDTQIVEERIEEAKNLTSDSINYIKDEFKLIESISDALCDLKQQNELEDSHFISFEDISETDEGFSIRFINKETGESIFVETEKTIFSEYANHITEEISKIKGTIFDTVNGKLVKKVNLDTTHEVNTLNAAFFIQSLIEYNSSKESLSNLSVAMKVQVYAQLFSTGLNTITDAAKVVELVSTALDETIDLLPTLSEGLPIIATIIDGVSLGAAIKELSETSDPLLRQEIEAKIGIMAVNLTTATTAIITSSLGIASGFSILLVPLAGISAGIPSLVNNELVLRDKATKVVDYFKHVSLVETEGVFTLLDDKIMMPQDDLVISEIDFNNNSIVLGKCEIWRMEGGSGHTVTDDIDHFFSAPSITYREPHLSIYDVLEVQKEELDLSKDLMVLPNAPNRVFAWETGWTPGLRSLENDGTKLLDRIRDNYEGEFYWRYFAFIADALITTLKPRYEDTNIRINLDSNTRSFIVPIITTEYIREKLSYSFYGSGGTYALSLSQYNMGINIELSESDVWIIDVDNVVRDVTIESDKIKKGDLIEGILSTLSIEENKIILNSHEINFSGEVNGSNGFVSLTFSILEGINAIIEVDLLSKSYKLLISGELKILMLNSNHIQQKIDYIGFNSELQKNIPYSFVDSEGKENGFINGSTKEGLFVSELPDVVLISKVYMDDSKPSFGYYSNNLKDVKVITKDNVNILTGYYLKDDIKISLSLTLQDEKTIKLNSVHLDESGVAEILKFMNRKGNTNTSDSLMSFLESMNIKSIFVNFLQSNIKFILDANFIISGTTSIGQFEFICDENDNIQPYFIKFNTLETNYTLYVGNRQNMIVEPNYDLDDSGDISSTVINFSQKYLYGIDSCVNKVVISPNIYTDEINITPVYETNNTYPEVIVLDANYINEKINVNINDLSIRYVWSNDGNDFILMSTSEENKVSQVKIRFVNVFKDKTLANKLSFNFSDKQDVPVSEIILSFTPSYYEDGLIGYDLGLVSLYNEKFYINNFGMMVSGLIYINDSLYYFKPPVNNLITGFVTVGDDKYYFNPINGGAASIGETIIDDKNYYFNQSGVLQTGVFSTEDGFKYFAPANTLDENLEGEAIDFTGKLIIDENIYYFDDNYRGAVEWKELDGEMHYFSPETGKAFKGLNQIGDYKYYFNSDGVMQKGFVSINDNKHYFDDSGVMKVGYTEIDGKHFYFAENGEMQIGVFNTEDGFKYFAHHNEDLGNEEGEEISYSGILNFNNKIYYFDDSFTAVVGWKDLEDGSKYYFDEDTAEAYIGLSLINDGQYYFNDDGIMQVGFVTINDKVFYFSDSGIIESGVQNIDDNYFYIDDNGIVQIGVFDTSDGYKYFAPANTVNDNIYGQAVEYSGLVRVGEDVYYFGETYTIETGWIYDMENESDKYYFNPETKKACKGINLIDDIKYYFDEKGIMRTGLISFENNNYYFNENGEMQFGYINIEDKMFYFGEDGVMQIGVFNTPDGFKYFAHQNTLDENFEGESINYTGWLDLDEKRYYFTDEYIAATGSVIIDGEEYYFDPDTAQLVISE

[2] = Metal chelating activity assessed as compound-Mg2+ complex formation by measuring reduction in free cation concentration at 200 uM in presence of 200 uM MgCl2 by colorimetric assay
[3] = Solubility of compound assessed as precipitate formation at 250 uM at pH 2 to 8 incubated for 30 mins in presence of 20 to 100 uM ZnCl2 by turbidimetric assay; format: physicochemical; details: buffer, pH 2, 0.5 h
[4] = Solubility of compound assessed as precipitate formation at 250 uM at pH 2 to 8 incubated for 30 mins in presence of 1.25 to 10 mM MgCl2 by turbidimetric assay; format: physicochemical; details: buffer, pH 2, 0.5 h
[5] = biological target: Toxin B (Clostridioides difficile) (UniProt P18177); assay: Allosteric activation of Clostridioides difficile Toxin B assessed as induction of autoproteolysis by measuring maximal extent cleavage measured after 3 hrs by Western blot based extent cleavage assay relative to control; details: filed as positive allosteric modulator
Sequence of Toxin B (Clostridioides difficile) (P18177 whole entry, the tested form may be a part): as the sequence (P18177 whole entry) above

[6] = biological target: Toxin B (Clostridioides difficile) (UniProt P18177); assay: Allosteric activation of Clostridioides difficile Toxin B assessed as induction of autoproteolysis by measuring increase in TcdB cleavage at 50 uM measured after 3 hrs by silver staining based SDS-PAGE analysis relative to control; details: filed as positive allosteric modulator
[7] = biological target: Toxin B (Clostridioides difficile) (UniProt P18177); assay: Allosteric activation of Clostridioides difficile Toxin B assessed as induction of autoproteolysis by measuring increase in TcdB cleavage at 50 uM incubated for 3 hrs in presence of 10 mM MgCl2 by silver staining based SDS-PAGE analysis
[8] = biological target: Toxin B (Clostridioides difficile) (UniProt P18177); assay: Stabilization of His6 tagged Clostridioides difficile holo-Toxin B truncated cysteine protease domain (543 to 799 residues) extracted from Escherichia coli BL21 (DE3) assessed as peaks with change in chemical shift perturbation at 350 uM by 1H-15N-HSQC NMR analysis relative to control
[9] = biological target: Toxin B (Clostridioides difficile) (UniProt P18177); assay: Competitive binding affinity to His6 tagged Clostridioides difficile […]-Toxin B truncated cysteine protease domain (543 to 799 residues) extracted from Escherichia coli BL21 (DE3) assessed as peaks with change in chemical shift perturbation at 350 uM by 31P-NMR analysis
[10] = Solubility of compound assessed as precipitate formation at 250 uM at pH 2 to 8 incubated for 30 mins in presence of 3 to 10 mM CaCl2 by turbidimetric assay; format: physicochemical; details: buffer, pH 2, 0.5 h
[11] = biological target: Toxin B (Clostridioides difficile) (UniProt P18177); assay: Allosteric activation of Clostridioides difficile Toxin B assessed as induction of autoproteolysis by measuring increase in TcdB cleavage at 50 uM incubated for 3 hrs in presence of 3 mM CaCl2 by silver staining based SDS-PAGE analysis
[12] = biological target: Toxin B (Clostridioides difficile) (UniProt P18177); assay: Binding affinity to His6 tagged Clostridioides difficile Toxin B truncated cysteine protease domain (543 to 799 residues) extracted from Escherichia coli BL21 (DE3) assessed as change in number of bound protons per binding interaction at 530 uM by ITC analysis; details: filed as positive allosteric modulator
[13] = biological target: T1, Toxin B; assay: Binding affinity to His6 tagged Clostridioides difficile Toxin B truncated cysteine protease domain (543 to 799 residues) extracted from Escherichia coli BL21 (DE3) assessed as dissociation constant in presence of 10 mM Ca2+ by ITC method
[14] = biological target: Toxin B (Clostridioides difficile) (UniProt P18177); assay: Stabilization of His6 tagged Clostridioides difficile apo-Toxin B truncated cysteine protease domain (543 to 799 residues) extracted from Escherichia coli BL21 (DE3) assessed as chemical shift perturbation by measuring increase in number of peaks by 1H-15N-HSQC NMR analysis (reference value: 141)
[15] = biological target: T1, Toxin B; assay: Allosteric activation of Clostridioides difficile Toxin B assessed as induction of autoproteolysis measured after 3 hrs by Western blot based extent cleavage assay
[16] = Metal chelating activity assessed as compound-Ca2+ complex formation by measuring reduction in free cation concentration at 200 uM in presence of 200 uM CaCl2 by colorimetric assay
[17] = biological target: Toxin B (Clostridioides difficile) (UniProt P18177); assay: Allosteric activation of Clostridioides difficile Toxin B assessed as induction of autoproteolysis by measuring increase in TcdB cleavage at 50 uM incubated for 3 hrs in presence of 1.25 mM MgCl2 by silver staining based SDS-PAGE analysis
[18] = biological target: T1, Toxin B; assay: Binding affinity to His6 tagged Clostridioides difficile Toxin B truncated cysteine protease domain (543 to 799 residues) extracted from Escherichia coli BL21 (DE3) assessed as dissociation constant by ITC method
[19] = biological target: Toxin B (Clostridioides difficile) (UniProt P18177); assay: Allosteric activation of Clostridioides difficile Toxin B assessed as induction of autoproteolysis by measuring increase in TcdB cleavage at 50 uM incubated for 3 hrs in presence of 100 uM ZnCl2 by silver staining based SDS-PAGE analysis
[20] = biological target: Toxin B (Clostridioides difficile) (UniProt P18177); assay: Stabilization of His6 tagged Clostridioides difficile Toxin B truncated cysteine protease domain (543 to 799 residues) extracted from Escherichia coli BL21 (DE3) assessed as change in melting temperature by SYPRO Orange dye based differential scanning fluorometry analysis
[21] = biological target: Toxin B (Clostridioides difficile) (UniProt P18177); assay: Allosteric activation of Clostridioides difficile Toxin B assessed as induction of autoproteolysis by measuring increase in TcdB cleavage at 50 uM incubated for 3 hrs in presence of 10 mM CaCl2 by silver staining based SDS-PAGE analysis relative to control
[22] = biological target: Toxin B (Clostridioides difficile) (UniProt P18177); assay: (§1) Competitive binding affinity to His6 tagged Clostridioides difficile Toxin B truncated cysteine protease domain (543 to 799 residues) extracted from Escherichia coli BL21 (DE3) assessed as peaks with change in chemical shift perturbation by measuring residual activity at 350 uM in presence of (1R,2r,3S,4R,5s,6S)-cyclohexane-1,2,3,4,5,6-hexayl hexakis (dihydrogen phosphate) by 1H-15N-HSQC NMR analysis relative to control; details: filed as positive allosteric modulator
[23] = Metal chelating activity assessed as compound-Ca2+ complex formation by measuring precipitation at 250 uM at pH 2 to 8 incubated for 30 mins in presence of 3 to 10 mM CaCl2 by turbidimetric assay
[24] = Metal chelating activity assessed as compound-Mg2+ complex formation by measuring precipitation at 250 uM at pH 2 to 8 incubated for 30 mins in presence of 1.25 to 10 mM MgCl2 by turbidimetric assay
[25] = biological target: Toxin B (Clostridioides difficile) (UniProt P18177); assay: as §1, with “1,3,5-(Tri-O-thiophosphate)-myo-inositol-2,4,6-tri-O-sulfate” for “(1R,2r,3S,4R,5s,6S)-cyclohexane-1,2,3,4,5,6-hexayl hexakis (dihydrogen phosphate)”; details: filed as positive allosteric modulator
[26] = biological target: Toxin B (Clostridioides difficile) (UniProt P18177); assay: Allosteric activation of Clostridioides difficile Toxin B assessed as induction of autoproteolysis by measuring increase in TcdB cleavage measured after 3 hrs by silver staining based SDS-PAGE analysis; details: filed as positive allosteric modulator
[27] = filed as positive allosteric modulator

Question: For O=S(=O)(O)O[C@H]1[C@H](OP(O)(O)=S)[C@H](OS(=O)(=O)O)[C@H](OP(O)(O)=S)[C@@H](OS(=O)(=O)O)[C@@H]1OP(O)(O)=S, which EC50 [1] is on record?
Answer: 113 µM

Question: And the Activity [2]?
Answer: Active

Question: And the solubility [3]?
Answer: Soluble

Question: And the solubility [4]?
Answer: Soluble

Question: And the Activity [5]?
Answer: 117%

Question: And the Activity [6]?
Answer: Active

Question: And the Activity [7, 27]?
Answer: 42%

Question: And the Activity [8]?
Answer: 49%

Question: And the Activity [9, 27]?
Answer: Active

Question: And the solubility [10]?
Answer: Soluble

Question: And the Activity [11]?
Answer: inactive

Question: What about the Activity [12] of the same compound?
Answer: -0.03

Question: What about the Kd [13] of the same compound?
Answer: 2.66 µM

Question: And the Activity [14]?
Answer: 208

Question: And the EC50 [15]?
Answer: 3.56 µM

Question: And the Activity [16]?
Answer: Active

Question: And the Activity [17]?
Answer: inactive

Question: What about the Kd [18] of the same compound?
Answer: 0.662 µM

Question: What about the Activity [19] of the same compound?
Answer: inactive

Question: What about the ΔTm [20] of the same compound?
Answer: 5.1 °C

Question: And the Activity [21, 27]?
Answer: 51%

Question: What about the Activity [22] of the same compound?
Answer: 7%

Question: With O=S(=O)(O)O[C@@H]1[C@@H](OP(O)(O)=S)[C@H](OS(=O)(=O)O)[C@H](OS(=O)(=O)O)[C@H](OS(=O)(=O)O)[C@H]1OP(O)(O)=S as the compound, how does the EC50 [1] read?
Answer: 557 µM

Question: And the Activity [2]?
Answer: Active

Question: What about the solubility [3] of the same compound?
Answer: Soluble

Question: And the solubility [4]?
Answer: Soluble

Question: And the solubility [10]?
Answer: Soluble

Question: What about the Activity [11] of the same compound?
Answer: inactive

Question: And the Activity [12]?
Answer: 0.11

Question: What about the Kd [13] of the same compound?
Answer: 4.69 µM

Question: What about the EC50 [15] of the same compound?
Answer: 27.1 µM

Question: And the Activity [16]?
Answer: Active

Question: What about the Activity [17] of the same compound?
Answer: inactive

Question: What about the Kd [18] of the same compound?
Answer: 2.2 µM

Question: What about the Activity [19] of the same compound?
Answer: inactive

Question: What about the ΔTm [20] of the same compound?
Answer: 5.3 °C

Question: For O=S(=O)(O)O[C@H]1[C@H](OP(O)(O)=S)[C@@H](OS(=O)(=O)O)[C@H](OP(O)(O)=S)[C@@H](OS(=O)(=O)O)[C@H]1OP(O)(O)=S, which Activity [12] is on record?
Answer: -0.01

Question: And the Kd [13]?
Answer: 5.37 µM

Question: What about the Kd [18] of the same compound?
Answer: 2.26 µM

Question: With O=P(O)(O)O[C@H]1[C@H](OP(=O)(O)O)[C@@H](OP(=O)(O)O)[C@H](OP(=O)(O)O)[C@@H](OP(=O)(O)O)[C@H]1OP(=O)(O)O [PHYTIC ACID] as the compound, how does the EC50 [1] read?
Answer: 536 µM

Question: And the Activity [5]?
Answer: 98%

Question: What about the Activity [7] of the same compound?
Answer: 23%

Question: And the Activity [9]?
Answer: inactive

Question: And the Activity [11]?
Answer: inactive

Question: What about the Activity [12] of the same compound?
Answer: -1.28

Question: What about the Activity [14] of the same compound?
Answer: 193

Question: And the EC50 [15]?
Answer: 8.39 µM

Question: And the Activity [23]?
Answer: Active

Question: What about the Activity [17] of the same compound?
Answer: inactive

Question: And the Kd [18]?
Answer: 1.36 µM

Question: What about the Activity [24] of the same compound?
Answer: Active

Question: And the Activity [19]?
Answer: inactive

Question: And the ΔTm [20]?
Answer: 3.3 °C

Question: What about the Activity [21] of the same compound?
Answer: 6%

Question: What about the Activity [25] of the same compound?
Answer: 47%

Question: Which solubility [3] does the source give for O=S(=O)(O)O[C@@H]1[C@@H](OS(=O)(=O)O)[C@H](OS(=O)(=O)O)[C@H](OP(O)(O)=S)[C@H](OS(=O)(=O)O)[C@H]1OS(=O)(=O)O here?
Answer: Soluble

Question: What about the solubility [4] of the same compound?
Answer: Soluble

Question: What about the solubility [10] of the same compound?
Answer: Soluble

Question: And the Kd [18]?
Answer: 7.14 µM

Question: Which Activity [2] does the source give for O=S(=O)(O)O[C@H]1[C@@H](OS(=O)(=O)O)[C@H](OS(=O)(=O)O)[C@@H](OP(O)(O)=S)[C@H](OS(=O)(=O)O)[C@H]1OS(=O)(=O)O here?
Answer: Active

Question: And the Activity [6]?
Answer: Active

Question: And the Activity [11]?
Answer: inactive

Question: What about the Activity [16] of the same compound?
Answer: Active

Question: What about the Activity [17] of the same compound?
Answer: inactive

Question: What about the Kd [18] of the same compound?
Answer: 2.19 µM

Question: What about the Activity [19] of the same compound?
Answer: inactive

Question: And the ΔTm [20]?
Answer: 3.1 °C

Question: Which Activity [26] does the source give for O=P(O)(O)O[C@@H]1[C@@H](OP(=O)(O)O)[C@H](OP(=O)(O)O)[C@H](OCc2ccccc2)[C@H](OP(=O)(O)O)[C@H]1OP(=O)(O)O here?
Answer: Active

Question: With OP(O)(=S)O[C@H]1[C@H](OP(O)(O)=S)[C@@H](OP(O)(O)=S)[C@H](OP(O)(O)=S)[C@@H](OP(O)(O)=S)[C@H]1OP(O)(O)=S as the compound, how does the EC50 [1] read?
Answer: 657 µM

Question: What about the Activity [2] of the same compound?
Answer: Active

Question: And the solubility [3]?
Answer: Soluble

Question: What about the solubility [4] of the same compound?
Answer: Soluble

Question: What about the solubility [10] of the same compound?
Answer: Soluble

Question: And the Activity [11]?
Answer: inactive

Question: What about the EC50 [15] of the same compound?
Answer: 2.31 µM

Question: And the Activity [16]?
Answer: Active

Question: What about the Activity [17] of the same compound?
Answer: inactive

Question: And the Kd [18]?
Answer: 0.184 µM

Question: What about the Activity [19] of the same compound?
Answer: inactive

Question: What about the ΔTm [20] of the same compound?
Answer: 5.6 °C
